Laboratory results as given in patent US8193378B2, “2H-chromene compound and derivative thereof” (Astellas Pharma Inc., priority 2008, dated 2012).
Read-outs that look alike come from different tables or passages of the source.

Legend:
[1] = tested on: peripheral blood lymphocytes; test: Reduction of number of peripheral blood lymphocytes in rat (Test Example 2); format: in vivo; conditions: Lymphocyte, male Lewis rats, oral
Description: Evaluation of Reduction of Number of Peripheral Blood Lymphocytes in Rat
The action on the peripheral blood lymphocytes were evaluated using rats. 6- to 10-week-old male Lewis rats (Japan Charles River Laboratories Japan, Inc.) were randomly divided into groups (n=3), and the compound of the present invention was suspended in 0.5% methyl cellulose-containing distilled water, and orally administered with a sonde. At 4 hours or 24 hours after administration, 0.2 ml of blood was collected from the ocular fundus under ether anesthesia. To the blood sample were immediately added EDTA.4K and heparin to prevent clotting, and the number of the lymphocytes in blood was measured with an automatic hematocyte analyzer (Sysmex Corp.; XT-2000i). For the reduction of the number of the lymphocytes in peripheral blood by the compound of the present invention, the percentage with the number of the lymphocytes in groups administered with 0.5% methyl cellulose-containing distilled water being set at 100%, as performed at the same time, were used, and the dose to cause 50% reduction of the number of the lymphocytes in the peripheral blood by administration of the compound of the present invention was defined as an ED50 value (mg/kg).

human S1P1 [2] = target: T1, human S1P1 (Homo sapiens, UniProt P21453); test: GTP[γ-35S] binding assay using membrane of human S1P1 expressing cell (Test Example 1, Method 1); format: biochemical; conditions: method 1, GTP[γ-35S] binding, membrane of human S1P1 expressing CHO cell (values without *); read-out: A: EC50, in vitro S1P1 agonist action
T1 construct: expressed in transfected cells; membrane fraction used
T1 sequence (P21453 whole entry): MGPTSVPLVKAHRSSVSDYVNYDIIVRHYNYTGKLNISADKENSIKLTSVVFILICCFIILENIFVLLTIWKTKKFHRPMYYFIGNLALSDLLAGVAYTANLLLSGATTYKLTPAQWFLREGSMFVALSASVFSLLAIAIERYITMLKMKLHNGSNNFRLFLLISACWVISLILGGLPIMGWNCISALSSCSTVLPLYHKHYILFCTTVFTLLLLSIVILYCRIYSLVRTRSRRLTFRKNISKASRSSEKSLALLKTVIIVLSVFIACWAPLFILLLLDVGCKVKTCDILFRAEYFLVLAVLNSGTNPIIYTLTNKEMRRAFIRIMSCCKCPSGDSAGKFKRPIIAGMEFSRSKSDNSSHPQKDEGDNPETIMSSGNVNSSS
Description: (§1) Evaluation of In Vitro S1P1 Receptor Agonist Activity in Biological Body
(Method 1) Method for Evaluation on Receptor Agonist Action by GTP[γ-^35S] Binding Assay Using Membrane of Human S1P1 Expressing Cell
The in vitro S1P1 agonist action of the compound of the present invention was evaluated by the increase in the functional binding activity of GTP[γ-^35S] to G-protein using the membrane of a human S1P1 expressing cell. A cDNA encoding a human S1P1 was cloned from a human colorectal cDNA library and introduced to an expression vector pcDNA3.1 to construct a S1P1-pcDNA3.1. Then, by Lipofectamine 2000 (GIBCO), the S1P1-pcDNA3.1 was transfected into a CHO cell, and cultured in a Ham's F-12 culture medium containing 10% fetal bovine serum, 100 U/mL penicillin, 100 μg/mL streptomycin, and 1 mg/mL G418 disulfate, to obtain a stable, G418-resistant strain. The cultured human S1P1 expressing cells were isolated in a 1 mM EDTA.2Na-containing PBS, and disrupted under ice-cooling by a homogenizer made of glass in a 1 mM Tris HCl (pH 7.4) buffer solution containing 0.1 mM EDTA and a protein inhibitor. It was centrifuged at […], and a supernatant was further centrifuged at 4° C. for 60 min at 100,000×g, and suspended in a 10 mM Tris HCl (pH 7.4) buffer solution containing 1 mM EDTA to purify the membrane. The obtained membrane (0.13 mg/mL) and […] GTP[γ-^35S] […] The filter plate was dried at 50° C. for 60 min, and Microscinti-o (Packard) was added thereto for measurement by a liquids scintillation counter for a microplate (Packard, TOP count). For evaluation of the human S1P1 agonist action of the compound of the present invention and the comparative compound, the percentages with the rate of a maximum reaction to make the GTP[γ-^35S] bonds saturated in the presence of the compound being set at 100%, and the rate of the reaction of the GTP[γ-^35S] bonds in the absence of the compound being set at 0% were used, a non-linear regression curve was plotted, and a concentration to cause an agonist action operating 50% of the maximum reaction was defined as an EC50 value (nM).

human S1P1 [3] = target: T1, human S1P1; test: Ca2+ influx assay using human S1P1 expressing cell (Test Example 1, Method 2); format: cell-based; conditions: method 2, Ca2+ influx, human S1P1 expressing CHO cell (values with *); read-out: A: EC50, in vitro S1P1 agonist action (value with *)
Description: as §1
(Method 2) Method for Evaluation of Receptor Agonist Action by Ca^2+ Influx Assay Using Human S1P1 Expressing Cell
The in vitro S1P1 agonist action of the compound of the present invention was evaluated by the increase in the Ca^2+ concentration in a human S1P1 expressing cell. A cDNA encoding a human S1P1 was cloned from a human colorectal cDNA library and introduced to an expression vector pcDNA3.1 to construct a S1P1-pcDNA3.1. Then, by Lipofectamine 2000 (GIBCO), the S1P1-pcDNA3.1 was transfected into a CHO cell, and cultured in a Ham's F-12 culture medium containing 10% fetal bovine serum, 100 U/mL penicillin, 100 μg/mL streptomycin, and 1 mg/mL G418 disulfate, to obtain a stable, G418-resistant strain. The cultured human S1P1 expressing cells were isolated in a 1 mM EDTA.2Na-containing PBS and suspended in a Ham's F-12 culture medium containing 10% fetal bovine serum, 100 U/mL penicillin, and 100 μg/mL streptomycin. This cell suspension was dispensed to a 96-well plate at 50000 cells/well, and cultured at a CO2 incubator (5% CO2, 37° C.) overnight. The culture medium was replaced with a calcium-sensitive fluorescent reagent (FLIPR (registered trademark) calcium 3 assay kit, molecular device)-containing loading buffer (Hank's balance salt solution, 20 mM HEPES, 2.5 mM probenecid) and left stand at a CO2 incubator (5% CO2, 37° C.) for 1 hour. The plate was set at a Functional Drug Screening System FDSS6000 (Hamamatsu Photonics K. K.), and persistently measured 124 times every 1.02 second at an excitation wavelength of 480 nm. The test compound (final concentration 10^−12 to 10^−5 M) was added at the same time as the 12th measurement, and the change in the Ca^2+ concentration in cells was evaluated by the change in the fluorescent strength. For evaluation of the human S1P1 agonist action of the compound of the present invention and the comparative compound, the percentages with the rate of a maximum reaction to make the increase in the Ca^2+ concentration in cells saturated after the addition of the compound being set at 100% and the rate of the increase in the Ca^2+ concentration in cells by the addition of a vehicle alone being set at 0% were used, a non-linear regression curve was plotted, and a concentration to cause an agonist action operating 50% of the maximum reaction was defined as an EC50 value (nM).

[4] = 4 hours after administration, read-out: B: ED50 4 h, reduction of number of lymphocytes in peripheral blood
[5] = 24 hours after administration, read-out: B: ED50 24 h, reduction of number of lymphocytes in peripheral blood

| Structure (SMILES) | ED50 [1, 4] [mg/kg] | EC50 (human S1P1 [2]) [nM] | EC50 (human S1P1 [3]) [nM] | ED50 [1, 5] [mg/kg] |
| --- | --- | --- | --- | --- |
| Cc1c(OCc2ccc(C(F)(F)F)cc2C(F)(F)F)ccc2c1OCC(CN1CCC(C(=O)O)C1)=C2.Cl (stereo not shown) [Ex 137] | 0.11 | 9.4 |  |  |
| Cl.O=C(O)C1=CCCN(CC2=Cc3c(F)cc(OCc4ccc(OC(CF)CF)c(Cl)c4)cc3OC2)C1 [Ex 143] | 0.32 |  |  |  |
| Cl.O=C(O)[C@@H]1CCCN(CC2=Cc3c(F)cc(OCc4ccc(OC(CF)CF)c(Cl)c4)cc3OC2)C1 [Ex 223] |  |  | 1.1 | 0.32 |
| CC1(C(=O)O)CN(CC2=Cc3c(F)cc(OCc4cc(-c5ccccc5)c(C(F)(F)F)s4)cc3OC2)C1 [Ex 81] | 0.25 | 4.6 |  |  |
| O=C(O)C1(F)CCN(CC2=Cc3c(F)cc(OCc4cc(-c5ccccc5)c(C(F)(F)F)s4)cc3OC2)C1 (stereo not shown) [Ex 74] | 0.59 | 5.6 |  |  |
| Cl.O=C(O)[C@@H]1CCCN(CC2=Cc3c(F)cc(OCc4ccc(OC(CF)CF)c(C(F)(F)F)c4)cc3OC2)C1 [Ex 212] |  |  | 1.1 | 0.21 |
| Cl.O=C(O)[C@@H]1CCCN(CC2=Cc3ccc(OCc4ccc(OCC(F)(F)F)c(C(F)(F)F)c4)cc3OC2)C1 [Ex 160] |  |  | 2.2 | 0.26 |
| O=C(O)C1CN(CC2=C(Cl)c3ccc(OCc4ccc(C(F)(F)F)cc4C(F)(F)F)cc3OC2)C1 [Ex 25] | 0.013 | 1.7 |  |  |
| CC(C)Oc1ccc(COc2ccc3c(c2)OCC(CN2CCC=C(C(=O)O)C2)=C3)cc1Cl.Cl [Ex 151] |  |  | 1.1 | 0.35 |
| O=C(O)[C@H]1CCN(CC2=Cc3c(F)cc(OCc4ccc(-n5cccc5)c(C(F)(F)F)c4)cc3OC2)C1 [Ex 109] | 0.26 | 5.4 |  |  |
| CC1(C(=O)O)CCN(CC2=Cc3c(F)cc(OCc4cc(-c5ccccc5)c(C(F)(F)F)s4)cc3OC2)C1 (stereo not shown) [Ex 66] | 0.21 | 10 |  |  |
| Cl.O=C(O)C1CCN(CC2=Cc3c(F)cc(OCc4ccc(C(F)(F)F)cc4C(F)(F)F)cc3OC2)C1 (stereo not shown) [Ex 45] | 0.1 | 1.5 |  |  |
| Cl.O=C(O)C1=CCN(CC2=Cc3ccc(OCc4ccc(OC(CF)CF)c(Cl)c4)cc3OC2)CC1 [Ex 181] |  |  | 0.68 | 0.29 |
| CCc1sc(COc2cc(F)c3c(c2)OCC(CN2CCC(C(=O)O)C2)=C3)cc1-c1ccccc1 (stereo not shown) [Ex 56] | 0.067 | 2.3 |  |  |
| CC1CN(CC2=Cc3c(F)cc(OCc4cc(-c5ccccc5)c(C(F)(F)F)s4)cc3OC2)CC1C(=O)O (stereo not shown) [Ex 69] | 0.087 | 6.3 |  |  |
| Cl.O=C(O)C1=CCCN(CC2=Cc3ccc(OCc4ccc(C5CCCC5)c(C(F)(F)F)c4)cc3OC2)C1 [Ex 216] |  |  | 7.8 | 0.25 |
| O=C(O)C1CCN(CC2=Cc3c(F)cc(OCc4ccc(-c5ccccc5)c(C(F)(F)F)c4)cc3OC2)C1 (stereo not shown) [Ex 62] | 0.21 | 2.5 |  |  |
| CS(=O)(=O)NC(=O)C1CCN(CC2=Cc3c(F)cc(OCc4ccc(C(F)(F)F)cc4C(F)(F)F)cc3OC2)C1.Cl (stereo not shown) [Ex 1, 1-[(7-{[2,4-bis(trifluoromethyl)benzyl]oxy}-5-fluoro-2H-chromen-3-yl)methyl]-N-(methylsulfonyl)pyrrolidine-3-carboxamide hydrochloride] | 0.016 | 1.7 |  |  |
| CC(C)Oc1ccc(COc2ccc3c(c2)OCC(CN2CCC=C(C(=O)O)C2)=C3)cc1C(F)(F)F.Cl [Ex 178] |  | 55 |  | 0.12 |
| CC1(C(=O)O)CCN(CC2=Cc3c(F)cc(OCc4ccc(-n5cccc5)c(C(F)(F)F)c4)cc3OC2)C1 (stereo not shown) [Ex 89] | 0.16 | 6.1 |  |  |
| O=C(O)C1CN(CC2=Cc3c(F)cc(OCc4ccc(C(F)(F)F)cc4C(F)(F)F)cc3OC2)C1 [Ex 34] | 0.01 | 2 |  |  |
| Cl.O=C(O)C1CN(CC2=Cc3ccc(C#CCCc4ccccc4)cc3OC2)C1 [Ex 132] | 0.16 | 22 |  |  |
| O=C(O)C1=CCCN(CC2=Cc3c(F)cc(OCc4ccc(C(F)(F)F)cc4C(F)(F)F)cc3OC2)C1 [Ex 85] | 0.19 | 11 |  |  |
| C[C@H](Oc1ccc(COc2cc(F)c3c(c2)OCC(CN2CCC=C(C(=O)O)C2)=C3)cc1Cl)C(F)(F)F.Cl [Ex 144] | 0.16 |  |  |  |
| CC1(C(=O)O)CN(CC2=Cc3ccc(OCc4ccc(-n5cccc5)c(C(F)(F)F)c4)cc3OC2)C1 [Ex 116] | 0.1 | 8.5 |  |  |
| C[C@H](Oc1ccc(COc2cc(F)c3c(c2)OCC(CN2CCC=C(C(=O)O)C2)=C3)cc1C(F)(F)F)C(F)(F)F.Cl [Ex 141] | 0.099 | 5.9 |  |  |
| Cl.O=C(O)C1CCN(CC2=Cc3ccc(OCc4ccc(C(F)(F)F)cc4C(F)(F)F)cc3OC2)C1 (stereo not shown) [Ex 44] | 0.37 | 3.7 |  |  |
| C[C@H](Oc1ccc(COc2ccc3c(c2)OCC(CN2CCC=C(C(=O)O)C2)=C3)cc1Cl)C(F)(F)F.Cl [Ex 149] |  | 8.7 |  | 0.12 |
| O=C(O)C1CN(CC2=Cc3ccc(OCc4cc(-c5ccccc5)c(Br)s4)cc3OC2)C1 [Ex 43] | 0.26 | 6.2 |  |  |
| CCCc1ccc(COc2ccc3c(c2)OCC(CN2CCC(C(=O)O)C2)=C3)c(OC)c1 (stereo not shown) [Ex 31] | 0.065 | 1.2 |  |  |
